Assay results: patent publication EP1344776A1, “5- 2-hydroxy-3-[1-(3-trifluoromethylphenyl)-cyclopropyl]-propionylamino -phtalide and 6- 2-hydroxy-3-[1-(3-trifluoromethylphenyl)-cyclopropyl]-propionylamino -4-methyl-2,3-benzoxazin-1-one derivatives with progesterone receptor modulating activity for use in fertility control, hormone replacement …” (Schering Aktiengesellschaft, priority 2002, dated 2003)
Where two headings read alike, the source gives them in different places.

Legend:
female rats = assay: Ovulation inhibition test in rat; assay type: in vivo
Procedure: Before the treatment is started, two […] cycles of female rats (weight: 190 to 210 g) were monitored. Only animals having a regular 4 day-cycle are used for the subsequent test. Starting in the metoestrus, the test compound is administered for 4 days (day 1 to 4) and the cycle is controlled thereafter.
For subcutaneous application, the test compounds are dissolved in benzyl benzoate/castor oil (1+9 v/v) and the daily dose is administered in a volume of 1 ml/kg body weight.
For peroral application, the test compounds are suspended in a carrier liquid (85 mg Myrj^R in 100 ml 0.9 % w/v NaCl solution) and the daily dose is administered in a volume of 2 ml/kg body weight.
On day 4, after the application of the test compound, those animals having estrus or metoestrus are ovariectomized under ether anesthesia on one side. Preparations of the tubes are prepared and they are investigated for ova by means of microscope. On day 5 all animals (intact and partly ovariectomized) are killed with carbon dioxide, the tubes are preserved and analyzed in the same way. It is then determined, as a percentage, in how many animals ovulation was inhibited.

hPR-B = assay: PR-B transcription assay (MTV-LUC reporter, SK-N-MC cells); assay type: cell-based, human; conditions: 10^-7 mol/l test compound relative to R5020 10^-7 mol/l, 24 hours, 0.1 µM
Procedure: The method for screening for PR isoform-specific progestins according to the present invention is carried out with first and second SK-N-MC cells stably transfected with a plasmid expressing the hPR-A (first cells) or the hPR-B (second cells) and the LUC reporter gene linked to the hormonally responsive MTV promoter.
The cells are cultured in Minimum Essential Medium with Earl's Salts (S-MEM, without L-glutamine; Gibco BRL, no. 21090-022), supplemented with 10 % fetal calf serum (FCS), penicillin 100U/streptomycin 100 µg/ml (Biochrom, no. A2213), L-glutamine 4 mmol/l (Gibco BRL, no. 25030-024), sodium pyruvate 1 mmol/l (Biochrom, no. L0473) and 1x non-essential amino acids (Biochrom, no. K0293) at a temperature of 37 °C and in an atmosphere of 5 % carbon dioxide.
For the transcription assay, the cells are seeded onto 96-well dishes (2x 10^4 cells/dish) and cultured in a medium as described above, with the exception that the FCS is replaced by a 3 % charcoal stripped FCS. 48 hours later, cells are contacted with prediluted test compounds. For determination of agonistic activity, cells are cultured in the presence of increasing concentrations (10^-6 to 10^-11 mol/l) of test progestins. As a positive control for reporter gene induction cells are treated with 10^-6 to 10^-11 mol/l R5020 (promegestone). As a negative control for reporter gene induction, cells are cultured in 1 % ethanol.
After incubation with test progestins for 24 hours, the medium is removed and cells are lysed with 20 µl of lysis buffer (Luciferase Assay System E 153A; Promega) and under agitation of the plate for 10 min. After addition of 30 µl of luciferase reagent (Luciferase Assay System E 151A + 152A; Promega) within 30 seconds per plate, the activity of the luciferase reporter gene product is determined in the cell lysates by means of a Microlite ML 3000 microtiter plate luminometer (Dynatech) in cycle mode.
Evaluation of the response gives the efficacy [%], and evaluation of the EC50 values gives the potency [nM]. Calculation of the agonistic activity is conducted as follows:
The LUC activity [%] for the measured data points is calculated as follows: relative LUC activity [%] = 100 x((response 10)^-6 (to 10)^-11 mol/l test compound - CO)/(CI - CO) [formula] wherein CI = 100 % stimulation (R5020, 10^-7 mol/l) and CO = 0 % stimulation (ethanol, 1 %).
Thus, the efficacy [%] is calculated according to: efficacy [%] = 100 x((response 10)^-7 mol/l test compound - CO)/(CI - CO) [formula]
The potency [nM], i.e. the EC50, is determined graphically.

[1] = target: T1, mineralocorticoid receptor (MR) (Homo sapiens, UniProt P08235); assay: Mineralocorticoid receptor binding; conditions: in vitro
T1 sequence (P08235 1-984): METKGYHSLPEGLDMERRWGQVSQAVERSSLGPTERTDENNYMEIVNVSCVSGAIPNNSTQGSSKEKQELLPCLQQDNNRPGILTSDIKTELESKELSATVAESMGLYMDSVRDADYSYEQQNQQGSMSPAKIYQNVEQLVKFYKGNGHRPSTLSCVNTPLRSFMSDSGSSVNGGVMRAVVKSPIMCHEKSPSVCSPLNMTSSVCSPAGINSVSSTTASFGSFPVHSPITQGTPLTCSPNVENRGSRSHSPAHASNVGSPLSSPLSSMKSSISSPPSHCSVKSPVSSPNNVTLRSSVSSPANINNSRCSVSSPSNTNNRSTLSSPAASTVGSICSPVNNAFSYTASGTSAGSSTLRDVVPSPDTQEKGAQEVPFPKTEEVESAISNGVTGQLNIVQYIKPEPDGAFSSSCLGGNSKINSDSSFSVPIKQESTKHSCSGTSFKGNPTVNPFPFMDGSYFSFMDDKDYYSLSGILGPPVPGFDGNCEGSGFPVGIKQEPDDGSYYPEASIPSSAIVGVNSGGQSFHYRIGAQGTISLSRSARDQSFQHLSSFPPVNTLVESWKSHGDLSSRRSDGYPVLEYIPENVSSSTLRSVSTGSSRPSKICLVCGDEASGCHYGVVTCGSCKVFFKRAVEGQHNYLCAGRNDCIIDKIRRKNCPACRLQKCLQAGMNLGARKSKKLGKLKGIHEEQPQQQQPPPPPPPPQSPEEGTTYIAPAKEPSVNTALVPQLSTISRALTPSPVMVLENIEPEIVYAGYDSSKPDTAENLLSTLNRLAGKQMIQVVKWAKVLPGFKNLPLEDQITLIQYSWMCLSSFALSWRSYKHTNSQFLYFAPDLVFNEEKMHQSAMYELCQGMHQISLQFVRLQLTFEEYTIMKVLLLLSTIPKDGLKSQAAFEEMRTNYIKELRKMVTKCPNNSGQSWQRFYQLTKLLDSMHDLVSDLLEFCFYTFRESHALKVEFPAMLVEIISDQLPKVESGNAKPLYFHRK

O=C1OCc2cc(NC(=O)C(O)(CC3(c4cc(C(F)(F)F)ccc4F)CC3)C(F)(F)F)ccc21 (single isomer, unassigned; (+)) [((+)-1), (+)-5-{2-hydroxy-3-[1-(2-fluoro-5-trifluoromethylphenyl)-cyclopropyl]-2-trifluoromethyl-propionylamino}-phthalide]
ED50 (female rats; Rattus norvegicus, ovulation inhibition, adult female rats (Table 1-a), read-out: ED50): 0.045 mg/kg | % Inhibition (female rats; ovulation inhibition, rat, dose 10 µg/kg, days 1 to 4): 0% | ED50 (female rats; rat (Table 1-b), read-out: Ovulation Inhibition (rat) [ED50]): 0.04 mg/kg | PR-B agonism efficacy (hPR-B): 25% | affinity for the mineralocorticoid receptor (MR) [1]: negligible
